# Results reported in US11452727B2, “Combination therapy for treating cancer” (Epizyme, Inc., priority 2017, dated 2022).
# Key:
# Experiment in all cases: In vitro combination study with tazemetostat, cell proliferation (Cell Titer Glo)
# A427 = details: A427; 7 days tazemetostat pre-treatment, 6 days co-treatment with second agent
# Experimental: (§1) Initial proliferation studies were performed to determine the IC50 of tazemetostat in each cell line. For the screen, tazemetostat was used at concentrations bracketed around the IC50 value. If 50% inhibitory concentration was not reached then tazemetostat was tested starting at 10 μM.
# (§2) In order to study the effect of dual combination of tazemetostat and a second agent on cell proliferation, cells in log-linear phase growth rate were pre-treated with various concentrations of tazemetostat or DMSO for 7 days in flasks, plated in 384-well plates in the absence of compounds and co-treated on day 8 with tazemetostat or DMSO and the second agent serially diluted for additional 6 days (as depicted in FIG. 1). On day 15, plates were developed for endpoint analysis using Cell Titer Glo to measure ATP content, which was used as an indicator of cell viability. DMSO concentration was kept constant throughout the assay at 0.15% v/v.
# (§3) All cell lines were obtained from American Type Culture Collection (ATCC; Rockville, Md.). […] A427, Calu-3, Calu-6 cell lines were cultured in EMEM+10% Fetal bovine serum (FBS)+1% v/v Penicillin/Streptomycin (P/S).
# A549 = details: 7 days tazemetostat pre-treatment, 6 days co-treatment with second agent
# Experimental: as §1, §2
# NCI-H1573 = details: 7 days tazemetostat pre-treatment, 6 days co-treatment with second agent
# Experimental: as §1, §2
# (§4) NCI-H1573 was cultured in DMEM: F12 Medium containing the following components: 0.02 mg/ml insulin, 0.01 mg/ml transferrin, 25 nM sodium selenite, 50 nM Hydrocortisone, 1 ng/ml Epidermal Growth Factor, 0.01 mM ethanolamine, 0.01 mM phosphorylethanolamine, 100 pM triiodothyronine, 0.5% (w/v) bovine serum albumin, 0.5 mM sodium pyruvate, 4.5 mM L-glutamine and 1% v/v Pen/Strep.
# NCI-H1703 = details: 7 days tazemetostat pre-treatment, 6 days co-treatment with second agent
# Experimental: as §1, §2
# NCI-H1793 = details: 7 days tazemetostat pre-treatment, 6 days co-treatment with second agent
# Experimental: as §1, §2, §4
# NCI-H1993 = details: 7 days tazemetostat pre-treatment, 6 days co-treatment with second agent
# NCI-H2030 = details: 7 days tazemetostat pre-treatment, 6 days co-treatment with second agent
# Experimental: as §1, §2
# NCI-H2110 = details: 7 days tazemetostat pre-treatment, 6 days co-treatment with second agent
# Experimental: as §1, §2
# NCI-H2122 = details: 7 days tazemetostat pre-treatment, 6 days co-treatment with second agent
# Experimental: as §1, §2, §3
# NCI-H23 = details: 7 days tazemetostat pre-treatment, 6 days co-treatment with second agent
# Experimental: as §1, §2, §3
# NCI-H460 = details: 7 days tazemetostat pre-treatment, 6 days co-treatment with second agent
# NCI-H522 = details: 7 days tazemetostat pre-treatment, 6 days co-treatment with second agent
# NCI-H661 = details: 7 days tazemetostat pre-treatment, 6 days co-treatment with second agent
# NCI-H838 = details: 7 days tazemetostat pre-treatment, 6 days co-treatment with second agent
# Experimental: as §1, §2, §4
# Calu-3 = details: 7 days tazemetostat pre-treatment, 6 days co-treatment with second agent
# Calu-6 = details: 7 days tazemetostat pre-treatment, 6 days co-treatment with second agent
# Experimental: as §1, §2
# HCC827 = details: 7 days tazemetostat pre-treatment, 6 days co-treatment with second agent
# NCI-H1299 = details: 7 days tazemetostat pre-treatment, 6 days co-treatment with second agent
SMILES,combinatorial effect with tazemetostat (Loewe volume class) (A427),combinatorial effect with tazemetostat (Loewe volume class) (A549),combinatorial effect with tazemetostat (Loewe volume class) (NCI-H1573),combinatorial effect with tazemetostat (Loewe volume class) (NCI-H1703),combinatorial effect with tazemetostat (Loewe volume class) (NCI-H1793),combinatorial effect with tazemetostat (Loewe volume class) (NCI-H1993),combinatorial effect with tazemetostat (Loewe volume class) (NCI-H2030),combinatorial effect with tazemetostat (Loewe volume class) (NCI-H2110),combinatorial effect with tazemetostat (Loewe volume class) (NCI-H2122),combinatorial effect with tazemetostat (Loewe volume class) (NCI-H23),combinatorial effect with tazemetostat (Loewe volume class) (NCI-H460),combinatorial effect with tazemetostat (Loewe volume class) (NCI-H522),combinatorial effect with tazemetostat (Loewe volume class) (NCI-H661),combinatorial effect with tazemetostat (Loewe volume class) (NCI-H838),combinatorial effect with tazemetostat (Loewe volume class) (Calu-3),combinatorial effect with tazemetostat (Loewe volume class) (Calu-6),combinatorial effect with tazemetostat (Loewe volume class) (HCC827),combinatorial effect with tazemetostat (Loewe volume class) (NCI-H1299)
"C[C@]1(c2nc3c(C(N)=O)cccc3[nH]2)CCCN1 [Veliparib, veliparib]",Syn. (Loewe volumes greater than 1 denoted “synergy”),No eff.,Syn. (Loewe volumes greater than 1 denoted “synergy”),No eff.,No eff.,No eff.,No eff.,No eff.,Anta. (volumes <−1 denoted “antagonism”),No eff.,Add. (A value between −1 and 1 denoted “additivity”),No eff.,No eff.,No eff.,No eff.,No eff.,Syn. (Loewe volumes greater than 1 denoted “synergy”),
"COc1cc(N2CCC(N3CCN(C)CC3)CC2)ccc1Nc1ncc(Cl)c(Nc2ccccc2P(C)(C)=O)n1 [Brigatinib, brigatinib]",Syn. (Loewe volumes greater than 1 denoted “synergy”),Syn. (Loewe volumes greater than 1 denoted “synergy”),Syn. (Loewe volumes greater than 1 denoted “synergy”),Syn. (Loewe volumes greater than 1 denoted “synergy”),Syn. (Loewe volumes greater than 1 denoted “synergy”),Syn. (Loewe volumes greater than 1 denoted “synergy”),Syn. (Loewe volumes greater than 1 denoted “synergy”),Syn. (Loewe volumes greater than 1 denoted “synergy”),Add. (A value between −1 and 1 denoted “additivity”),Syn. (Loewe volumes greater than 1 denoted “synergy”),Syn. (Loewe volumes greater than 1 denoted “synergy”),Syn. (Loewe volumes greater than 1 denoted “synergy”),Add. (A value between −1 and 1 denoted “additivity”),Syn. (Loewe volumes greater than 1 denoted “synergy”),Syn. (Loewe volumes greater than 1 denoted “synergy”),Add. (A value between −1 and 1 denoted “additivity”),,Add. (A value between −1 and 1 denoted “additivity”)
C=CC(=O)Nc1cc(Nc2nccc(-c3cn(C)c4ccccc34)n2)c(OC)cc1N(C)CCN(C)C [AZD9291],Anta. (volumes <−1 denoted “antagonism”),Add. (A value between −1 and 1 denoted “additivity”),Add. (A value between −1 and 1 denoted “additivity”),Add. (A value between −1 and 1 denoted “additivity”),Syn. (Loewe volumes greater than 1 denoted “synergy”),Add. (A value between −1 and 1 denoted “additivity”),Add. (A value between −1 and 1 denoted “additivity”),Syn. (Loewe volumes greater than 1 denoted “synergy”),Anta. (volumes <−1 denoted “antagonism”),Add. (A value between −1 and 1 denoted “additivity”),Add. (A value between −1 and 1 denoted “additivity”),Syn. (Loewe volumes greater than 1 denoted “synergy”),Anta. (volumes <−1 denoted “antagonism”),Syn. (Loewe volumes greater than 1 denoted “synergy”),Syn. (Loewe volumes greater than 1 denoted “synergy”),,Add. (A value between −1 and 1 denoted “additivity”),Add. (A value between −1 and 1 denoted “additivity”)
CNC(=O)Cn1cc(-c2ccc3c(c2)[C@H](F)C[C@]32NC(=O)N(CC(=O)N(Cc3ccc(F)cc3)[C@@H](C)C(F)(F)F)C2=O)cn1 [Cmpd H],Syn. (Loewe volumes greater than 1 denoted “synergy”),,Anta. (volumes <−1 denoted “antagonism”),,Syn. (Loewe volumes greater than 1 denoted “synergy”),Syn. (Loewe volumes greater than 1 denoted “synergy”),,Add. (A value between −1 and 1 denoted “additivity”),Add. (A value between −1 and 1 denoted “additivity”),Anta. (volumes <−1 denoted “antagonism”),Syn. (Loewe volumes greater than 1 denoted “synergy”),,Anta. (volumes <−1 denoted “antagonism”),Add. (A value between −1 and 1 denoted “additivity”),Syn. (Loewe volumes greater than 1 denoted “synergy”),Add. (A value between −1 and 1 denoted “additivity”),Add. (A value between −1 and 1 denoted “additivity”),
"CCCS(=O)(=O)Nc1ccc(F)c(C(=O)c2c[nH]c3ncc(-c4ccc(Cl)cc4)cc23)c1F [Vemurafenib, vemurafenib]",,,,,,,,,,,,,,,,,No eff.,
"C#Cc1cccc(Nc2ncnc3cc(OCCOC)c(OCCOC)cc23)c1 [Erlotinib, erlotinib]",,,,,,,,,,,,,,,,,Syn. (Loewe volumes greater than 1 denoted “synergy”),
"C[C@]12C=CC(=O)C=C1CC[C@@H]1[C@@H]2[C@@H](O)C[C@@]2(C)[C@H]1CC[C@]2(O)C(=O)CO [Prednisolone, prednisolone]",Add. (A value between −1 and 1 denoted “additivity”),Add. (A value between −1 and 1 denoted “additivity”),Syn. (Loewe volumes greater than 1 denoted “synergy”),No eff.,Syn. (Loewe volumes greater than 1 denoted “synergy”),No eff.,No eff.,No eff.,Anta. (volumes <−1 denoted “antagonism”),No eff.,Add. (A value between −1 and 1 denoted “additivity”),No eff.,No eff.,No eff.,No eff.,Syn. (Loewe volumes greater than 1 denoted “synergy”),Anta. (volumes <−1 denoted “antagonism”),
